Data on 5 molecules can be found in patent publication US6239134A, “Diazole derivatives as serotonergic agents” (American Home Products Corp., priority 2000, dated 2001).

SMILES strings stand for the structures. Structures can show the parent of a compound that is named as a salt. Where two headings read alike, the source gives them in different places.

For assay [1], the target named is T1, human 5HT1A receptor (Homo sapiens, UniProt P08908).
T1 construct: expressed in transfected cells; host or cells: CHO cells, stably transfected
T1 sequence (P08908 1-422): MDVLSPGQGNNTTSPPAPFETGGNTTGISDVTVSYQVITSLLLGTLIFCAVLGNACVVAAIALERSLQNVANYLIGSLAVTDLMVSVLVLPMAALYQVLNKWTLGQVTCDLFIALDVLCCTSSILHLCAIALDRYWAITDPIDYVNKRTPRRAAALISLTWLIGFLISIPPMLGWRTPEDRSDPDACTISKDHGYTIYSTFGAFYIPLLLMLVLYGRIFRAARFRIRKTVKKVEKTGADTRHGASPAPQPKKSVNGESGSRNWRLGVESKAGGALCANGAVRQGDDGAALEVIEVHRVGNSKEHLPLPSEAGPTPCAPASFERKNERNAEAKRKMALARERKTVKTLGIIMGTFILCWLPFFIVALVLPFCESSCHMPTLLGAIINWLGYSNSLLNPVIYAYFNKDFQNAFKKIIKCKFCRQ
Description: 5-HT1A Receptor Intrinsic Activity Assay (agonist mode; reversal of stimulated cAMP in stably transfected CHO cells). The format is cell-based. Particulars: read-out: cAMP Emax. As for the experimental part: 5-HT1A Receptor Intrinsic Activity Assay
The intrinsic activity of compounds of the present invention was established by testing the claimed compounds ability to reverse the stimulation of cyclic adenosinemonophosphate (cAMP) in CHO cells stably transfected with the human 5-HT1A receptor.
Stably transfected CHO cells were grown in DMEM containing 10% heat inactivated FBS and non-essential amino acids. The cells are plated at a density of […] per well in a 24 well plate and incubated for 2 days in a CO2 incubator. On the second day, the media is replaced with 0.5 mL treatment buffer (DMEM+25 mM HEPES, 5 mM theophylline, […] pargyline) and incubated for 10 minutes at 37° C. Wells are treated with forskolin ([…]) followed immediately by the test compound ([…] for initial screen) and incubated for an additional 10 minutes at 37° C. The reaction is terminated by removal of the media and addition of 0.5 mL ice cold assay buffer (supplied in the RIA kit). Plates are stored at -20° C. prior to assessment of cAMP formation by RIA. EC50 values are determined for the active test compounds. Compounds shown to have no agonist activities (Emax=0%) are further analyzed for their ability to reverse agonist induced activity. In separate experiments, 6 concentrations of antagonist are preincubated for 20 minutes prior to the addition of agonist and forskolin. Cells are harvested as described above. The cAMP kit is supplied by Amersham and the RIA is performed as per kit instructions, and calculations of IC50 performed by GraphPad Prism.

Assay [2] concerns the target T1, human 5HT1A receptor. In words: 5-HT1A Receptor Binding Assay (displacement of [3H] 8-OH-DPAT in stably transfected CHO cells). Particulars: @ 1 _M, single point assay. As to the method:
5-HT1A Receptor Binding Assay
High affinity for the serotonin 5-HT1A receptor was established by testing the claimed compound's ability to displace [3H] 8-OH-DPAT binding in CHO cells stably transfected with the human 5HT1A receptor. Stably transfected CHO cells are grown in DMEM containing 10% heat inactivated FBS and non-essential amino acids. Cells are scraped off the plate, transferred to centrifuge tubes, and washed twice by centrifugation (2000 rpm for 10 min., 4° C.) in buffer (50 mM Tris pH 7.5). The resulting pellets are aliquoted and placed at -80° C. On the day of assay, the cells are thawed on ice and resuspended in buffer. The binding assay is performed in a 96 well microtiter plate in a total volume of […]. Non-specific binding is determined in the presence of […], final ligand concentration is 1.5 nM. Following a 30 minute incubation at room temperature, the reaction is terminated by the addition of ice cold buffer and rapid filtration through a GF/B filter presoaked for 30 minutes in 0.5% PEI. Compounds are initially tested in a single point assay to determine percent inhibition at […], and Ki values are determined for the active compounds.

Where [3] appears, read: forskolin-stimulated cAMP, CHO cells.

Usually Emax stands for the greatest response seen or fitted, relative to the assay's reference. As to `O=C(N[C@@H](Cc1ccccc1)CN1CCN(c2nsnc2Cl)CC1)C1CCCCC1` [Compound 4, Cyclohexanecarboxylic acid {(1S)-1-benzyl-2-(4-(4-chloro[1,2,5}thiadiazol-3-yl)piperazin-1-yl]ethyl}amide fumarate], in assay [1] (CHO), the Emax turned out to be 93%.
For the molecule `O=C(N[C@@H](Cc1ccccc1)CN1CCN(c2nsnc2Cl)CC1)c1ccccn1` [Compound 6, Pyridine-2-carboxylic acid {(1S)-1-benzyl-2,3-[4(4-chloro[1,2,5]thiadiazol-3-yl)piperazin-1-yl]ethyl}amide], in assay [2], the “5-HT1A binding, percent inhibition” value is 47%.
Regarding `CN(C(=O)C1CCCCC1)[C@H](Cc1ccccc1)CN1CCN(c2nsnc2Cl)CC1` [Compound 7], the Emax in assay [1] (setting [3]) is 0%.
Still for that read-out and setting: next, `COc1nsnc1N1CCN(C[C@@H](Cc2ccccc2)N(C)C(=O)C2CCCCC2)CC1` [Compound 8, Cyclohexanecarboxylic acid {(1R)-1-benzyl-2-[4-(4-methoxy-[1,2,5]thiadiazol-3-yl)-piperazine-1-yl]ethyl}methyl amide]: 0%; `COc1nsnc1N1CCN(C[C@@H](Cc2cccnc2)NC(=O)C2(C)CCCCC2)CC1` [Compound 11, 1-Methylcyclohexanecarboxylic acid {(1R)-2-[4-(4-methoxy-[1,2,5]thiadiazol-3-yl)-piperazin-1-yl]-1-pyridin-3-ylmethylethyl}amide]: 0%.
